Assay results taken from publication PMC11407783 (Nature cell biology, 2023).

Molecular target: KDM3B (Homo sapiens, UniProt Q7LBC6)
Test: competitive inhibition of purified recombinant KDM3B
Format: biochemical

Sequence of KDM3B (Q7LBC6 whole entry): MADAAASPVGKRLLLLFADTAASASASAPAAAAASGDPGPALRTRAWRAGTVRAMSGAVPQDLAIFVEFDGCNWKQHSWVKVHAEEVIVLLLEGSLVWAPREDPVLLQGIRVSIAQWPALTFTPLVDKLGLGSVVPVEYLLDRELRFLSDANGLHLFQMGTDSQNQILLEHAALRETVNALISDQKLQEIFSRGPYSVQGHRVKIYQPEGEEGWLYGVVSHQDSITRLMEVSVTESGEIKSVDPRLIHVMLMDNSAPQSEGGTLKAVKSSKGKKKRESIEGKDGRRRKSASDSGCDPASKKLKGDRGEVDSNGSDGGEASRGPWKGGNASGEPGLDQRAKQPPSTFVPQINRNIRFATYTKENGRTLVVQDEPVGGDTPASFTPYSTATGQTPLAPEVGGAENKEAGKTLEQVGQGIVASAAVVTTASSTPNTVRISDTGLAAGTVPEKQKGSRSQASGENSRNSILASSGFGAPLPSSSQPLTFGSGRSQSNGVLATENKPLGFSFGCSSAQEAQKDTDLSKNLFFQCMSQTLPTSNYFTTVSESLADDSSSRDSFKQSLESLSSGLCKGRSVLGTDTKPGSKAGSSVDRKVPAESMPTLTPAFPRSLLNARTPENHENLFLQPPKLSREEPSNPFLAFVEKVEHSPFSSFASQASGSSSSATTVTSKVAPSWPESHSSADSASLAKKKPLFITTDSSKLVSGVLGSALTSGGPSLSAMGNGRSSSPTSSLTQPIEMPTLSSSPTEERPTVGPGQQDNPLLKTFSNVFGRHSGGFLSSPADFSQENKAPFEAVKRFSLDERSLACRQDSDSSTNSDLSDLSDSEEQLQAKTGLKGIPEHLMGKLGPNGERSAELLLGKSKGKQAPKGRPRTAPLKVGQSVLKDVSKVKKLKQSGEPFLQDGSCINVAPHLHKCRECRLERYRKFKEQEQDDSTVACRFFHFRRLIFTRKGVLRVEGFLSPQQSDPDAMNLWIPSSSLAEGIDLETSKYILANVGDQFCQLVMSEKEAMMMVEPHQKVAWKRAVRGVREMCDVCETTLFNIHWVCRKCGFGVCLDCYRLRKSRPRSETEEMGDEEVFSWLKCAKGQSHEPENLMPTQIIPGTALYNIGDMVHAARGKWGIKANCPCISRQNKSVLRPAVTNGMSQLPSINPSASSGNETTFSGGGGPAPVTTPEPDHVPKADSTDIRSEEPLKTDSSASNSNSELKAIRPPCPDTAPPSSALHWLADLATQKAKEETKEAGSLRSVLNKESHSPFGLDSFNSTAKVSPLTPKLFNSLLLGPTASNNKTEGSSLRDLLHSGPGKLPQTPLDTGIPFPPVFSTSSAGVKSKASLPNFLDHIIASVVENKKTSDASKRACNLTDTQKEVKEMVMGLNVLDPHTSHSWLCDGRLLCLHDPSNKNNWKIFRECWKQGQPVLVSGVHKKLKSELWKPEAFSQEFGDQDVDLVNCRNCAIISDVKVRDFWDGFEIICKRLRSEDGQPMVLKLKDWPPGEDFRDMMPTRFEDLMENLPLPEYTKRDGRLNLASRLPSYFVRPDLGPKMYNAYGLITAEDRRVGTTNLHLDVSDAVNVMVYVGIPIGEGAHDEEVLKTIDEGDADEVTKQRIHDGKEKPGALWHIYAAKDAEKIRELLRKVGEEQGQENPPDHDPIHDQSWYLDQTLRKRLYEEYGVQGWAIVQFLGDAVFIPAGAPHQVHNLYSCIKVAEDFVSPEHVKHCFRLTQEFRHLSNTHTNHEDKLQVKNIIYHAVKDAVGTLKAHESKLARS

## O=C(O)CCC(O)C(=O)O (stereo not shown) [R-2HG]
  IC50: ~2460 µM
